Laboratory results: PMC4678576, “Optimisation of a triazolopyridine based histone demethylase inhibitor yields a potent and selective KDM2A (FBXL11) inhibitor” (MedChemComm, 2014)

Assay: Parallel artificial membrane permeation assay (PAMPA)
Format: in vitro ADME
Details: for Papp: PAMPA, range over pH 7.4, 6.2, 5.0, read-out: membrane permeability (PAMPA), range over the pH values tested

## O=C(O)c1ccnc(-c2cn([C@@H]3CCCN(C(=O)c4ccccc4)C3)nn2)c1 [Compound 35]
  Papp: 0.41 to 1.9 ×10⁻⁶ cm/s
  PAMPA Pe pH 5.0: 1.9 10^−6 cm s^−1
  PAMPA Pe pH 6.2: 0.41 10^−6 cm s^−1
  PAMPA Pe pH 7.4: 0.69 10^−6 cm s^−1

## COC(=O)c1ccnc(-c2cn([C@@H]3CCCN(C(=O)c4ccccc4)C3)nn2)c1 [Compound 37]
  Papp: 45 to 56 ×10⁻⁶ cm/s
  PAMPA Pe pH 5.0: 56 10^−6 cm s^−1
  PAMPA Pe pH 6.2: 45 10^−6 cm s^−1
  PAMPA Pe pH 7.4: 52 10^−6 cm s^−1
